According to ChEMBL document CHEMBL3046588, “Design, synthesis, and in vitro evaluation of cytotoxic activity of new substituted 1,4-benzoquinones and hydroquinones” (2007):

system: not listed separately; assay: Cytotoxicity against Homo sapiens (human) colon cancer cells after 48 hr by SRB assay; type: functional; details: Cancer cell lines

In order of rising GI50:
1. Oc1ccc(O)c(-c2cc(-c3ccc(Cl)cc3)nn2-c2ccccc2)c1  5.75 µM
2. COc1ccc(OC)c(-c2cc(-c3ccc(Cl)cc3)nn2-c2ccc(S(=O)(=O)NC(C)=O)cc2)c1  8.18 µM
3. Oc1ccc(O)c(-c2cc(-c3ccccc3)nn2-c2ccccc2)c1  28.5 µM

In order of falling TGI:
1. Oc1ccc(O)c(-c2cc(-c3ccccc3)nn2-c2ccccc2)c1  77.4 µM
2. COc1ccc(OC)c(-c2cc(-c3ccc(Cl)cc3)nn2-c2ccc(S(=O)(=O)NC(C)=O)cc2)c1  36 µM
3. Oc1ccc(O)c(-c2cc(-c3ccc(Cl)cc3)nn2-c2ccccc2)c1  16.8 µM

system: not listed separately; assay: Cytotoxicity against Homo sapiens (human) leukemia cells after 48 hr by SRB assay; type: functional; details: Leukemia cell

In order of falling GI50:
1. Oc1ccc(O)c(-c2cc(-c3ccccc3)nn2-c2ccccc2)c1  35.7 µM
2. COc1ccc(OC)c(-c2cc(-c3ccc(Cl)cc3)nn2-c2ccc(S(=O)(=O)NC(C)=O)cc2)c1  7.45 µM
3. Oc1ccc(O)c(-c2cc(-c3ccc(Cl)cc3)nn2-c2ccccc2)c1  3.43 µM

In order of rising TGI:
1. Oc1ccc(O)c(-c2cc(-c3ccc(Cl)cc3)nn2-c2ccccc2)c1  49.7 µM
2. COc1ccc(OC)c(-c2cc(-c3ccc(Cl)cc3)nn2-c2ccc(S(=O)(=O)NC(C)=O)cc2)c1  50.1 µM
3. Oc1ccc(O)c(-c2cc(-c3ccccc3)nn2-c2ccccc2)c1  100 µM

system: not listed separately; assay: Cytotoxicity against Homo sapiens (human) melanoma cellsafter 48 hr by SRB assay; type: functional; details: Melanoma cell

In order of falling GI50:
1. Oc1ccc(O)c(-c2cc(-c3ccccc3)nn2-c2ccccc2)c1  22.6 µM
2. COc1ccc(OC)c(-c2cc(-c3ccc(Cl)cc3)nn2-c2ccc(S(=O)(=O)NC(C)=O)cc2)c1  10.7 µM
3. Oc1ccc(O)c(-c2cc(-c3ccc(Cl)cc3)nn2-c2ccccc2)c1  8.79 µM

In order of rising TGI:
1. COc1ccc(OC)c(-c2cc(-c3ccc(Cl)cc3)nn2-c2ccc(S(=O)(=O)NC(C)=O)cc2)c1  28.7 µM
2. Oc1ccc(O)c(-c2cc(-c3ccc(Cl)cc3)nn2-c2ccccc2)c1  32.5 µM
3. Oc1ccc(O)c(-c2cc(-c3ccccc3)nn2-c2ccccc2)c1  63.9 µM

system: MCF7; assay: Cytotoxicity against Homo sapiens (human) MCF7 cells assessed as cellular growth after 48 hr by Alamar blue assay; type: functional; design: concentration or dose not given beside the values; details: not given

In the case of COc1ccc(OC)c(-c2cc(-c3ccc(Cl)cc3)nn2-c2ccc(S(=O)(=O)NC(C)=O)cc2)c1, the Activity is reported as <32%.
In the case of Oc1ccc(O)c(-c2cc(-c3ccccc3)nn2-c2ccccc2)c1, the Activity is reported as <32%.
With Oc1ccc(O)c(-c2cc(-c3ccc(Cl)cc3)nn2-c2ccccc2)c1 the Activity was <32%.

system: SF-268; assay: Cytotoxicity against Homo sapiens (human) SF268 cells assessed as cellular growth after 48 hr by Alamar blue assay; type: functional; design: concentration or dose not given beside the values; details: not given

For COc1ccc(OC)c(-c2cc(-c3ccc(Cl)cc3)nn2-c2ccc(S(=O)(=O)NC(C)=O)cc2)c1, the Activity was <32%.
In the case of Oc1ccc(O)c(-c2cc(-c3ccccc3)nn2-c2ccccc2)c1, the Activity is reported as <32%.
For Oc1ccc(O)c(-c2cc(-c3ccc(Cl)cc3)nn2-c2ccccc2)c1, the Activity was <32%.

system: not listed separately; assay: Cytotoxicity against Homo sapiens (human) breast cancer cells after 48 hr by SRB assay; type: functional; details: Cancer cell lines

In order of rising GI50:
1. Oc1ccc(O)c(-c2cc(-c3ccc(Cl)cc3)nn2-c2ccccc2)c1  9.25 µM
2. Oc1ccc(O)c(-c2cc(-c3ccccc3)nn2-c2ccccc2)c1  17.1 µM
3. COc1ccc(OC)c(-c2cc(-c3ccc(Cl)cc3)nn2-c2ccc(S(=O)(=O)NC(C)=O)cc2)c1  25.4 µM

In order of falling TGI:
1. Oc1ccc(O)c(-c2cc(-c3ccccc3)nn2-c2ccccc2)c1  75.7 µM
2. COc1ccc(OC)c(-c2cc(-c3ccc(Cl)cc3)nn2-c2ccc(S(=O)(=O)NC(C)=O)cc2)c1  70.2 µM
3. Oc1ccc(O)c(-c2cc(-c3ccc(Cl)cc3)nn2-c2ccccc2)c1  41.1 µM

same assay, conditions: Cancer cell lines, pooled result: one value given for 9 cell lines, strains, targets or settings

In order of falling LC50 (concentration giving 50% net cell kill):
1. Oc1ccc(O)c(-c2cc(-c3ccccc3)nn2-c2ccccc2)c1  91.3 µM
2. COc1ccc(OC)c(-c2cc(-c3ccc(Cl)cc3)nn2-c2ccc(S(=O)(=O)NC(C)=O)cc2)c1  79.2 µM
3. Oc1ccc(O)c(-c2cc(-c3ccc(Cl)cc3)nn2-c2ccccc2)c1  76.1 µM

system: not listed separately; assay: Cytotoxicity against Homo sapiens (human) renal cancer cells after 48 hr by SRB assay; type: functional; details: Cancer cell lines

In order of falling GI50:
1. Oc1ccc(O)c(-c2cc(-c3ccccc3)nn2-c2ccccc2)c1  22.6 µM
2. COc1ccc(OC)c(-c2cc(-c3ccc(Cl)cc3)nn2-c2ccc(S(=O)(=O)NC(C)=O)cc2)c1  17.7 µM
3. Oc1ccc(O)c(-c2cc(-c3ccc(Cl)cc3)nn2-c2ccccc2)c1  8.86 µM

In order of rising TGI:
1. Oc1ccc(O)c(-c2cc(-c3ccc(Cl)cc3)nn2-c2ccccc2)c1  32 µM
2. COc1ccc(OC)c(-c2cc(-c3ccc(Cl)cc3)nn2-c2ccc(S(=O)(=O)NC(C)=O)cc2)c1  53.2 µM
3. Oc1ccc(O)c(-c2cc(-c3ccccc3)nn2-c2ccccc2)c1  67.3 µM

system: not listed separately; assay: Cytotoxicity against Homo sapiens (human) ovarian cancer cells after 48 hr by SRB assay; type: functional; details: Cancer cell lines

In order of rising GI50:
1. Oc1ccc(O)c(-c2cc(-c3ccc(Cl)cc3)nn2-c2ccccc2)c1  8.01 µM
2. COc1ccc(OC)c(-c2cc(-c3ccc(Cl)cc3)nn2-c2ccc(S(=O)(=O)NC(C)=O)cc2)c1  23.4 µM
3. Oc1ccc(O)c(-c2cc(-c3ccccc3)nn2-c2ccccc2)c1  37.6 µM

In order of rising TGI:
1. Oc1ccc(O)c(-c2cc(-c3ccc(Cl)cc3)nn2-c2ccccc2)c1  60.4 µM
2. COc1ccc(OC)c(-c2cc(-c3ccc(Cl)cc3)nn2-c2ccc(S(=O)(=O)NC(C)=O)cc2)c1  67.1 µM
3. Oc1ccc(O)c(-c2cc(-c3ccccc3)nn2-c2ccccc2)c1  75.2 µM

system: not listed separately; assay: Cytotoxicity against Homo sapiens (human) non-small cell lung cancer cells after 48 hr by SRB assay; type: functional; details: Cancer cell lines

In order of rising GI50:
1. Oc1ccc(O)c(-c2cc(-c3ccc(Cl)cc3)nn2-c2ccccc2)c1  6.85 µM
2. COc1ccc(OC)c(-c2cc(-c3ccc(Cl)cc3)nn2-c2ccc(S(=O)(=O)NC(C)=O)cc2)c1  17.7 µM
3. Oc1ccc(O)c(-c2cc(-c3ccccc3)nn2-c2ccccc2)c1  26.9 µM

In order of falling TGI:
1. Oc1ccc(O)c(-c2cc(-c3ccccc3)nn2-c2ccccc2)c1  63.6 µM
2. COc1ccc(OC)c(-c2cc(-c3ccc(Cl)cc3)nn2-c2ccc(S(=O)(=O)NC(C)=O)cc2)c1  52.6 µM
3. Oc1ccc(O)c(-c2cc(-c3ccc(Cl)cc3)nn2-c2ccccc2)c1  33.2 µM

system: NCI-H460; assay: Cytotoxicity against Homo sapiens (human) NCI-H460 cells assessed as cellular growth after 48 hr by Alamar blue assay; type: functional; design: concentration or dose not given beside the values; details: not given

For COc1ccc(OC)c(-c2cc(-c3ccc(Cl)cc3)nn2-c2ccc(S(=O)(=O)NC(C)=O)cc2)c1, the Activity was <32%.
In the case of Oc1ccc(O)c(-c2cc(-c3ccccc3)nn2-c2ccccc2)c1, the Activity is reported as <32%.
With Oc1ccc(O)c(-c2cc(-c3ccc(Cl)cc3)nn2-c2ccccc2)c1 the Activity was <32%.

system: not listed separately; assay: Cytotoxicity against Homo sapiens (human) CNS cancer cells after 48 hr by SRB assay; type: functional; details: Cancer cell lines

In order of falling GI50:
1. COc1ccc(OC)c(-c2cc(-c3ccc(Cl)cc3)nn2-c2ccc(S(=O)(=O)NC(C)=O)cc2)c1  19.4 µM
2. Oc1ccc(O)c(-c2cc(-c3ccccc3)nn2-c2ccccc2)c1  18.6 µM
3. Oc1ccc(O)c(-c2cc(-c3ccc(Cl)cc3)nn2-c2ccccc2)c1  17.9 µM

In order of falling TGI:
1. Oc1ccc(O)c(-c2cc(-c3ccccc3)nn2-c2ccccc2)c1  71.2 µM
2. COc1ccc(OC)c(-c2cc(-c3ccc(Cl)cc3)nn2-c2ccc(S(=O)(=O)NC(C)=O)cc2)c1  50 µM
3. Oc1ccc(O)c(-c2cc(-c3ccc(Cl)cc3)nn2-c2ccccc2)c1  34.6 µM

system: not listed separately; assay: Cytotoxicity against Homo sapiens (human) prostate cancer cells after 48 hr by SRB assay; type: functional; details: Cancer cell lines

In order of rising GI50:
1. COc1ccc(OC)c(-c2cc(-c3ccc(Cl)cc3)nn2-c2ccc(S(=O)(=O)NC(C)=O)cc2)c1  3.61 µM
2. Oc1ccc(O)c(-c2cc(-c3ccc(Cl)cc3)nn2-c2ccccc2)c1  14.6 µM
3. Oc1ccc(O)c(-c2cc(-c3ccccc3)nn2-c2ccccc2)c1  16.7 µM

In order of falling TGI:
1. Oc1ccc(O)c(-c2cc(-c3ccccc3)nn2-c2ccccc2)c1  100 µM
2. Oc1ccc(O)c(-c2cc(-c3ccc(Cl)cc3)nn2-c2ccccc2)c1  30.7 µM
3. COc1ccc(OC)c(-c2cc(-c3ccc(Cl)cc3)nn2-c2ccc(S(=O)(=O)NC(C)=O)cc2)c1  21.9 µM
